Data: US8865704B2, “Wnt pathway antagonists” (Siena Biotech S.p.A., priority 2009, dated 2014)

Test system: Wnt/β-catenin pathway
Test: Wnt reporter assay (TCF-Luciferase, Firefly) in DBTRG-05MG cells
Format: cell-based
Conditions: Homo sapiens, 24 hours after compound addition
Experimental: TCF-Luciferase: Three copies of a 4×TCF responsive elements were cloned into the pcDNA3.1/Zeo(+) vector (Invitrogen) after deletion of the constitutive CMV promoter and the insertion of the Firefly Luciferase from Promega (phFL-TK) to measure the activity of the Wnt/β-catenin pathway. The resulting plasmid was sequenced for quality control.
Cells were grown in 20 μg/ml Zeocin and 20 μg/ml Zeocin plus 30 μg/ml Hygromicin respectively. The cells were plated at a density of 6500 cells/well in poly-D-lysine pre-treated 96 well-plates.
IC50 determination: 36 hours after plating cells were incubated with 8-points (60 μM-40 μM-20 μM-10 μM-5 μM-1.66 μM-0.55 μM-0.185 μM) dilutions compound (0.6% DMSO (v/v)). Each compound was tested in triplicate in single plate. Luciferase detection was done with Dual-Luciferase Reporter Assay System (Promega). 24 hours after compound addition, media was removed and 30 μl of 1× lysis buffer was added to each well for 30 minutes. To each well 45 μl of Dual-Glo Luciferase reagent (Promega) were added and after 1 second delay Luciferase was detected for 1 second using Mithras LB940 instrument. After Firefly luciferase quantification 45 μl of Dual Stop & Glo reagent (Promega) were added to each well and Firefly Renilla was detected using the same parameters described before.
Data were expressed as % of control for Firefly and Renilla luciferase independently; values were calculated using XLFit version 4.2, with a four parameters sigmoid function (XLFit model 205).

IC50 [µM]	SMILES
0.3 to 30	COCC(=O)N1CCN(C(=O)[C@H]2CC[C@H](Cn3c(=O)c4cc(OC)ccc4n(C)c3=O)CC2)C[C@H]1C [Example 151]
0.3 to 30	COc1ccc2[nH]c(=O)n(C[C@H]3CC[C@H](C(=O)N4CCN(C(=O)C5CC5)CC4)CC3)c2c1 [Example 134]
0.3 to 30	COc1cccc(NC(=O)[C@H]2CC[C@H](Cn3c(=O)c4cc(OC)ccc4n(C)c3=O)CC2)c1 [Example 191]
0.3 to 30	COc1ccc2c(c1)n(C[C@H]1CC[C@H](C(=O)N3CCN(C(=O)c4nccn4C)CC3)CC1)c(=O)n2C [Example 211]
0.3 to 30	CC(C)C(=O)N1CCN(C(=O)[C@H]2CC[C@H](Cn3c(=O)[nH]c4ccccc4c3=O)CC2)CC1 [Example 30]
0.3 to 30	COCCN1CCN(C(=O)[C@H]2CC[C@H](Cn3c(=O)c4cc(OC)ccc4n(C)c3=O)CC2)CC1=O [Example 94]
0.3 to 30	COc1ccc2c(c1)c(=O)n(C[C@H]1CC[C@H](C(=O)N3CCN(C(=O)[C@@H]4CCCO4)CC3)CC1)c(=O)n2C [Example 128]
0.3 to 30	COc1ccc2c(c1)c(=O)n(C[C@H]1CC[C@H](C(=O)Nc3cncc(F)c3)CC1)c(=O)n2C [Example 174]
0.3 to 30	O=c1[nH]c2ccc(Cl)cc2c(=O)n1C[C@H]1CC[C@H](C(=O)N2CCN(Cc3ccccc3)CC2)CC1 [Example 25]
0.3 to 30	COc1ccc2c(c1)c(=O)n(C[C@H]1CC[C@H](C(=O)Nc3ccnc(OC)c3)CC1)c(=O)n2C [Example 177]
0.3 to 30	O=C(C1CC1)N1CCN(C(=O)[C@H]2CC[C@H](Cn3c(=O)[nH]c4ccccc43)CC2)CC1 [Example 74]
0.3 to 30	COc1ccc2[nH]c(=O)n(C[C@H]3CC[C@H](C(=O)N4CCN(C(=O)[C@@H]5CCCO5)CC4)CC3)c(=O)c2c1 [Example 110]
0.3 to 30	O=C(N1CCCC1)N1CCN(C(=O)[C@H]2CC[C@H](Cn3c(=O)[nH]c4ccccc4c3=O)CC2)CC1 [Example 42]
0.3 to 30	COc1ccc2c(c1)c(=O)n(C[C@H]1CC[C@H](C(=O)N3CCN(C(=O)C4CC4)C[C@H]3C)CC1)c(=O)n2C [Example 138]
0.3 to 30	COc1cc2c(cc1Cl)n(C[C@H]1CC[C@H](C(=O)N3CCOCC3)CC1)c(=O)n2C [Example 186]
0.3 to 30	O=C(C1CC1)N1CCN(C(=O)[C@H]2CC[C@H](CN3Cc4cc(Cl)ccc4NC3=O)CC2)CC1 [Example 85]
0.3 to 30	COc1ccc(CN2CCN(C(=O)[C@H]3CC[C@H](Cn4c(=O)[nH]c5ccccc5c4=O)CC3)CC2)cc1 [Example 38]
0.3 to 30	O=C(c1ccno1)N1CCN(C(=O)[C@H]2CC[C@H](Cn3c(=O)[nH]c4ccccc4c3=O)CC2)CC1 [Example 36]
0.3 to 30	COc1ccc2[nH]c(=O)n(C[C@H]3CC[C@H](C(=O)N4CCN(CC5CC5)C(=O)C4)CC3)c(=O)c2c1 [Example 105]
0.3 to 30	COc1ccc2c(c1)c(=O)n(C[C@H]1CC[C@H](C(=O)Nc3ccncc3C)CC1)c(=O)n2C [Example 172]
0.3 to 30	COc1ccc2c(c1)c(=O)n(C[C@H]1CC[C@H](C(=O)Nc3ccc(-c4ncco4)cc3)CC1)c(=O)n2C [Example 189]
0.3 to 30	O=C(C1CC1)N1CCN(C(=O)[C@H]2CC[C@H](Cn3c(=O)[nH]c4ccc(F)cc4c3=O)CC2)CC1 [Example 82]
0.3 to 30	CC(=O)N1CCN(C(=O)[C@H]2CC[C@H](Cn3c(=O)c4ccccc4n(C)c3=O)CC2)CC1 [Example 52]
0.3 to 30	COCC(=O)N1CCN(C(=O)[C@H]2CC[C@H](Cn3c(=O)n(C)c4ccc(C)nc43)CC2)CC1 [Example 204]
0.3 to 30	COc1ccc2c(c1)c(=O)n(C[C@H]1CC[C@H](C(=O)Nc3cccc4ncccc34)CC1)c(=O)n2C [Example 188]
0.3 to 30	COc1ccc2[nH]c(=O)n(C[C@H]3CC[C@H](C(=O)N4CCN(c5cccc(OC)n5)CC4)CC3)c(=O)c2c1 [Example 140]
0.3 to 30	COc1ccc2[nH]c(=O)n(C[C@H]3CC[C@H](C(=O)N4CCN(C(=O)C5CC5)[C@@H](C)C4)CC3)c(=O)c2c1 [Example 152]
0.3 to 30	CCCCC(=O)N1CCN(C(=O)[C@H]2CC[C@H](Cn3c(=O)[nH]c4ccccc4c3=O)CC2)CC1 [Example 35]

IC50 [µM]	SMILES
0.3 to 30	CCOc1ccc2[nH]c(=O)n(C[C@H]3CC[C@H](C(=O)N4CCN(C(=O)C5CC5)CC4)CC3)c(=O)c2c1 [Example 161]
0.3 to 30	COc1ccc2c(c1)n(C[C@H]1CC[C@H](C(=O)N3CCN(C(=O)c4cncn4C)CC3)CC1)c(=O)n2C [Example 185]
0.3 to 30	O=C(C1CC1)N1CCN(C(=O)[C@H]2CC[C@H](Cn3c(=O)[nH]c4cc(Cl)ccc43)CC2)CC1 [Example 111]
0.3 to 30	COc1ccc2c(c1)c(=O)n(C[C@H]1CC[C@H](C(=O)N3CCN(C(=O)OC(C)C)CC3)CC1)c(=O)n2C [Example 130]
0.3 to 30	COc1ccc2[nH]c(=O)n(C[C@H]3CC[C@H](C(=O)N4CCCOCC4)CC3)c(=O)c2c1 [Example 90]
0.3 to 30	COc1ccc2c(c1)c(=O)n(C[C@H]1CC[C@H](C(=O)Nc3cccnc3)CC1)c(=O)n2C [Example 153]
0.3 to 30	O=C1CC(c2ccccc2)NC(=O)N1C[C@H]1CC[C@H](C(=O)N2CCN(c3ccccc3)CC2)CC1 (stereo partly drawn) [Example 44]
0.3 to 30	CC(C)N1CCN(C(=O)[C@H]2CC[C@H](Cn3c(=O)[nH]c4ccc(Cl)cc4c3=O)CC2)CC1 [Example 43]
0.3 to 30	CCC(C)C(=O)N1CCN(C(=O)[C@H]2CC[C@H](Cn3c(=O)c4cc(OC)ccc4n(C)c3=O)CC2)CC1 (stereo partly drawn) [Example 123]
0.3 to 30	CCCC(C)C(=O)N1CCN(C(=O)[C@H]2CC[C@H](Cn3c(=O)[nH]c4ccc(OC)cc4c3=O)CC2)CC1 (stereo partly drawn) [Example 100]
0.3 to 30	COc1ccc2c(c1)n(C[C@H]1CC[C@H](C(=O)N3CCN(C(=O)c4cc(C)nn4C)CC3)CC1)c(=O)n2C [Example 210]
0.3 to 30	CC(C)Cn1c(=O)n(C[C@H]2CC[C@H](C(=O)N3CCN(C(=O)C4CC4)CC3)CC2)c(=O)c2ccccc21 [Example 64]
0.3 to 30	CC(=O)N1CCN(C(=O)[C@H]2CC[C@H](Cn3c(=O)n(C)c4ccc(Cl)cc43)CC2)CC1 [Example 180]
0.3 to 30	COc1ccc2c(c1)c(=O)n(C[C@H]1CC[C@H](C(=O)N3CCN(C(=O)C4CC4)CC3)CC1)c(=O)n2CC1CC1 [Example 84]
0.3 to 30	CC(=O)N1CCN(C(=O)[C@H]2CC[C@H](Cn3c(=O)n(C)c4ccc(C(F)(F)F)cc43)CC2)CC1 [Example 202]
0.3 to 30	CN1C(=O)N(C[C@H]2CC[C@H](C(=O)N3CCN(C(=O)C4CC4)CC3)CC2)Cc2ccccc21 [Example 67]
0.3 to 30	COc1ccc2[nH]c(=O)n(C[C@H]3CC[C@H](C(=O)N4CCOCC4)CC3)c2c1 [Example 8, 6-Methoxy-1-[trans-4-(morpholine-4-carbonyl)-cyclohexylmethyl]-1,3-dihydro-benzoimidazol-2-one]
0.3 to 30	COc1ccc2c(c1)c(=O)n(C[C@H]1CC[C@H](C(=O)Nc3ccc(OC)nc3)CC1)c(=O)n2C [Example 154]
0.3 to 30	CC(=O)N1CCN(C(=O)[C@H]2CC[C@H](CN3C(=O)Cc4ccccc4C3=O)CC2)CC1 [Example 12, 2-[trans-4-(4-Acetyl-piperazine-1-carbonyl)-cyclohexylmethyl]-4H-isoquinoline-1,3-dione]
0.3 to 30	COc1ccc2c(c1)c(=O)n(C[C@H]1CC[C@H](C(=O)Nc3ccc(F)nc3)CC1)c(=O)n2C [Example 173]
0.3 to 30	COc1ccc2[nH]c(=O)n(C[C@H]3CC[C@H](C(=O)N4CCN(C)C(=O)C4)CC3)c(=O)c2c1 [Example 86]
0.3 to 30	COc1ccc2c(c1)c(=O)n(C[C@H]1CC[C@H](C(=O)Nc3ccc4ncccc4c3)CC1)c(=O)n2C [Example 187]
0.3 to 30	COc1ccc2c(c1)n(C[C@H]1CC[C@H](C(=O)N3CCOCC3)CC1)c(=O)n2C [Example 9, 5-Methoxy-1-methyl-3-[trans-4-(morpholine-4-carbonyl)-cyclohexylmethyl]-1,3-dihydro-benzoimidazol-2-one]
0.3 to 30	COc1ccc2c(c1)c(=O)n(C[C@H]1CC[C@H](C(=O)Nc3cccc4cccnc34)CC1)c(=O)n2C [Example 201]
0.3 to 30	COc1ccc2c(c1)n(C[C@H]1CC[C@H](C(=O)N3CCN(C(=O)C(C)C)CC3)CC1)c(=O)n2C [Example 184]
0.3 to 30	COCC(=O)N1CCN(C(=O)[C@H]2CC[C@H](Cn3c(=O)c4cc(OC)ccc4n(C)c3=O)CC2)C[C@@H]1C [Example 149]
0.3 to 30	CN1C(=O)N(C[C@H]2CC[C@H](C(=O)N3CCN(C(=O)C4CCCC4)CC3)CC2)Cc2ccccc21 [Example 68]

SMILES	IC50 [µM]
COc1ccc2c(c1)n(C[C@H]1CC[C@H](C(=O)N3CCN(C(C)=O)CC3)CC1)c(=O)n2C [Example 17, 3-[trans-4-(4-Acetyl-piperazine-1-carbonyl)-cyclohexylmethyl]-5-methoxy-1-methyl-1,3-dihydro-benzoimidazol-2-one]	0.3 to 30
O=C1CN(C[C@H]2CC[C@H](C(=O)N3CCN(c4ccccn4)CC3)CC2)C(=O)c2ccccc2N1 [Example 13, 4-[trans-4-(4-pyridin-2-yl-piperazine-1-carbonyl)-cyclohexylmethyl]-3,4-dihydro-1H-benzo[e][1,4]diazepine-2,5-dione]	0.3 to 30
